From patent publication US11059800B2, “Dehydroleucodine derivatives and uses thereof” (Bioventures, LLC, priority 2013, dated 2021) come the findings set out here.

Series [1] deals with TUR. Put plainly: Cytotoxicity, annexin V/7-AAD viability by flow cytometry, TUR. It counts as cell-based, human. As to conditions: 48 hours, drug range tested 1.25-160 μM. As to the method:
(§1) In order to assess the structure-activity relationship of DHL and its derivatives, DHL and its derivatives were evaluated against eight human leukemia cell lines. Cell lines were cultured in Iscove's Modified Dulbecco's Medium (IMDM) supplemented with 10%˜20% fetal bovine serum (FBS) according to culture conditions indicated by ATCC and 1% penicillin/streptomycin (Pen/Strep) at 37° C. and 5% CO2. The cells were seeded into 96-well plates and kept at a concentration of 0.5 million cells per mL. The samples were treated with DHL, Leucodine, DHL-Morpholine, DHL-Proline, DHL-Piperidine, and PTL at varying concentrations in triplicates. Cell viability was determined after incubating for 48 hours. The cells were stained with annexin V-fluorescein isothiocyanate or phycoeritrine (FITC/PE) and 7-aminoactinomycin (7-AAD) to detect phosphatidylserine exposition and cell permeability, respectively. At least 50,000 events were recorded per condition on either an LSR-II or LSR-Fortessa flow cytometer (BD Biosciences). Data analysis was conducted using FlowJo 9.6 software for Mac OS X (TreeStar). Cells that were negative for annexin V and 7-AAD were scored as viable.

In series [2] the test system is U-937. Put plainly: Cytotoxicity, annexin V/7-AAD viability by flow cytometry, U-937. Conditions: U-937, 48 hours, drug range tested 1.25-160 μM. It counts as cell-based, human. The method, then:
as §1

In series [3] the test system is Kasumi-1. As to the kind of experiment: Cytotoxicity, annexin V/7-AAD viability by flow cytometry, Kasumi-1. It counts as cell-based, human. As to conditions: Kasumi-1, 48 hours, drug range tested 1.25-160 μM. The method, then:
as §1

Series [4] has as its system MV4-11. Put plainly: Cytotoxicity, annexin V/7-AAD viability by flow cytometry, MV4-11. In kind it is cell-based, human. Conditions: MV4-11, 48 hours, drug range tested 1.25-160 μM. The method, then:
as §1

For series [5], the system named is HMOX1 (Heme oxygenase 1). As to the kind of experiment: Quantitative PCR of HMOX1 in MOLM-13 or MV-411 cells. In kind it is cell-based. Conditions: 20 μM, 6 hours, MOLM-13 and MV-411 cells. The method, then:
(§2) (FIG. 8A) Graphical representation of the fold changes of HMOX-1 in MOLM-13 cells. Cells were seeded at 0.5 million cells per milliliter and subject to 20 μM of DHL, leucodine, DHL-proline, DHL-piperidine, DHL-morpholine, or parthenolide for 6 hours. RNA was then extracted and quantitative PCR was performed. Experiments were performed in triplicates. Lines represent mean for each specimen, with error bars representing the SD. Fold change was calculated by the delta-delta Ct method. […] (FIG. 8D) Immunoblot for MOLM-13 cells after 6 hours of treatment with either DHL or PTL with 10 or 20 μM. Blot was probed for phospho-p65 and p65 antibodies. Total p65 is shown as the loading control.
(§3) (FIG. 9A) Graphical representation of the fold changes of HMOX-1 in MV-411 cells. Cells were seeded at 0.5 million cells per milliliter and subject to 20 μM of DHL, leucodine, DHL-proline, DHL-piperidine, DHL-morpholine, or parthenolide for 6 hours. RNA was then extracted and quantitative PCR was performed. Experiments were performed in triplicates. Lines represent mean for each specimen, with error bars representing the SD. Fold change was calculated by the delta-delta Ct method. (FIG. 9B) Graphical representation of the fold changes of HSPA1A in MV-411 cells, with the same experimental setup and analysis as FIG. […].
(§4) To compare these intracellular effects of DHL and its derivatives, quantitative PCR was performed (FIG. 8 and FIG. 9). MOLM-13 or MV-411 cells were seeded at 0.5 million cells per milliliter. Cells were treated for 6 hours with 20 μM of DHL, Leucodine, DHL-Morpholine, DHL-Proline, DHL-Piperidine or PTL, and then collected. Total RNA was extracted using the Qiashredder and Qiagen Rneasy Mini kits. […] Quantitative PCR was performed using probes for HMOX-1 (Hs01110251_m1), HSPA1A (Hs00359163_s1), and NFKB1 (Hs00765730_m1). […] Single-plex real-time PCR was performed in triplicates in a StepOne plus RealTime PCR system and analyzed with the StepOne Software. Fold change was calculated using the 2-DDCT method described by Livak and Schmittgen.

Series [6] concerns MOLM-13. Put plainly: Cytotoxicity, annexin V/7-AAD viability by flow cytometry, MOLM-13. It counts as cell-based, human. Conditions: MOLM-13, 48 hours, drug range tested 1.25-160 μM. The method, then: as §1
Series [7] has as its system THP-1. Put plainly: Cytotoxicity, annexin V/7-AAD viability by flow cytometry, THP-1. It counts as cell-based, human. Conditions: THP-1, 48 hours, drug range tested 1.25-160 μM. As to the method: as §1
Series [8] concerns HL-60. As to the kind of experiment: Cytotoxicity, annexin V/7-AAD viability by flow cytometry, HL-60. In kind it is cell-based, human. As to conditions: HL-60, 48 hours, drug range tested 1.25-160 μM. The method, then: as §1
Series [9] concerns eight human leukemia cell lines.
Procedure: Cell lines were cultured in Iscove's Modified Dulbecco's Medium (IMDM) supplemented with 10%˜20% fetal bovine serum (FBS) according to culture conditions indicated by ATCC and 1% penicillin/streptomycin (Pen/Strep) at 37° C. and 5% CO2. The cells were seeded into 96-well plates and kept at a concentration of 0.5 million cells per mL. […] Cell viability was determined after incubating for 48 hours. The cells were stained with annexin V-fluorescein isothiocyanate or phycoeritrine (FITC/PE) and 7-aminoactinomycin (7-AAD) to detect phosphatidylserine exposition and cell permeability, respectively. At least 50,000 events were recorded per condition on either an LSR-II or LSR-Fortessa flow cytometer (BD Biosciences). Data analysis was conducted using FlowJo 9.6 software for Mac OS X (TreeStar). Cells that were negative for annexin V and 7-AAD were scored as viable.
The subject of series [10] is HSPA1A. As to the kind of experiment: Quantitative PCR of HSPA1A in MOLM-13 or MV-411 cells. It counts as cell-based. As to conditions: 20 μM, 6 hours, MOLM-13 and MV-411 cells. The method, then:
as §2, §3, §4

Series [11] relates to KG-1. Put plainly: Cytotoxicity, annexin V/7-AAD viability by flow cytometry, KG-1. As to conditions: KG-1, 48 hours, drug range tested 1.25-160 μM. It counts as cell-based, human. The method, then:
In order to assess the structure-activity relationship of DHL and its derivatives, DHL and its derivatives were evaluated against eight human leukemia cell lines. Cell lines were cultured in Iscove's Modified Dulbecco's Medium (IMDM) supplemented with 10%˜20% fetal bovine serum (FBS) according to culture conditions indicated by ATCC and 1% penicillin/streptomycin (Pen/Strep) at 37° C. and 5% CO2. […] Cell viability was determined after incubating for 48 hours.

Series [12] deals with NF-κB. As to the kind of experiment: Quantitative PCR of NF-κB transcript in MOLM-13 and MV-411 cells. It counts as cell-based. As to conditions: 20 μM, 6 hours. The method, then:
as §2
as §4, with “collected.” for “collected. Total RNA was extracted using the Qiashredder and Qiagen Rneasy Mini kits.”

Some results are limits rather than exact numbers.

For the compound `CC1=CC(=O)C2=C(C)CCC3C(CN4CCCC4C(=O)O)C(=O)OC3C12` (stereo not drawn) [DHL-Proline], the LD50 in series [1] is 35.9 µM; in [2], 33.0 µM; in series [3], 28.1 µM; in series [4], 23.3 µM; in series [6] it was 20.6 µM; in series [7] it was 26.7 µM. Besides, the LD50 is 50.2 µM in series [8] and 97.7 µM in [11]. Further, the “HMOX1 expression, fold change” value in series [5] is “upregulated HMOX1 and HSPA1A the most”. Besides, in [9], the “anti-leukemic activity / in vitro cytotoxicity” value is on record as “most potent derivative”. Besides, the “HSPA1A expression, fold change” value in [10] was “upregulated HMOX1 and HSPA1A the most”.

Regarding `CC1=CC(=O)C2=C(C)CC[C@@H]3[C@H](OC(=O)[C@H]3C)[C@@H]12` [Leucodine, leucodine], in [12], the “NF-κB transcript levels” value is listed as “slightly downregulated”. Besides, the LD50 in series [1] was 105 µM; in series [2], greater than 160 µM; in [3], greater than 160 µM; in series [4] it was greater than 160 µM; in series [6], greater than 160 µM; in series [7] it was 121 µM. The LD50 in series [8] and in series [11] was greater than 160 µM in each case. In series [5], the “HMOX1 expression, fold change” value is “upregulated”. For the same compound, the “anti-leukemic activity / in vitro cytotoxicity” value in series [9] is “not found to be active”. For the same compound, the “HSPA1A expression, fold change” value in series [10] is given as “upregulated”.

Turning to `CC1=CC(=O)C2=C(C)CCC3C(CN4CCOCC4)C(=O)OC3C12` (stereo not drawn) [DHL-Morpholine], the LD50 was greater than 160 µM in series [1]; 74.7 µM in series [2]; greater than 160 µM in series [3]; 21.1 µM in series [4]; greater than 160 µM in [6]; 54.4 µM in series [7]. The LD50 is 166 µM in [8] and 129 µM in [11].

On to `CC1=CC(=O)C2=C(C)CCC3C(CN4CCCCC4)C(=O)OC3C12` (stereo not drawn) [DHL-Piperidine], for which the LD50 in [1] is greater than 160 µM; in [2], greater than 160 µM; in [3], greater than 160 µM; in [4], 66.9 µM; in series [6], 52.3 µM; in series [7], 59.3 µM. Also, the LD50 in [8] came out at 96.5 µM; in [11], 182 µM.
